# Measured values as given in US10501421B1, “Substituted benzimidazoles as modulators of Ras signaling” (VANDERBILT UNIVERSITY, priority 2017, dated 2019).
# Structures can show the parent of a compound that is named as a salt.
# Target: Ras GEF SOS (Son of Sevenless) (Homo sapiens, UniProt Q07889)
# Test: SOS-mediated nucleotide exchange on Ras (BODIPY-GDP fluorescence)
# Assay type: biochemical
# Details: SOS-mediated exchange of BODIPY-GDP for GTP on Ras
# Method: Compounds of the present invention were tested for their ability to modify the rate at which Ras exchanges a labeled nucleotide guanosine diphosphate (GDP) analog for guanosine triphosphate (GTP). Briefly, test compounds, then GTP and the Ras GEF SOS (Son of Sevenless) are added to a buffered solution containing Ras protein loaded with BODIPY-GDP. Changes in fluoresence indicating exchange of the labeled GDP for GTP are monitored over time. Raw fluorescence data was fit to a single exponential decay function and derived rates were plotted as mean values. EC50 values were calculated by plotting mean derived rates as a function of compound concentration and fit using a four-parameter dose-response curve. This assay is performed in a method analogous to the assay disclosed in: Burns, M. C.; Sun, Q.; Daniels, R. N.; Camper, D. V.; Kennedy, J. P.; Phan, J.; Olejniczak, E. O.; Lee, T.; Waterson, A. G.; Rossanese, O. W.; Fesik, S. W. “Approach for targeting Ras with small molecules that activate SOS-mediated nucleotide exchange” Proc. Natl. Acad. Sci. 2014; 11(9): 3401-3406. PMCID: PMC3948241.
# Chain of Ras GEF SOS (Son of Sevenless) (Q07889 564-1049 limits assumed): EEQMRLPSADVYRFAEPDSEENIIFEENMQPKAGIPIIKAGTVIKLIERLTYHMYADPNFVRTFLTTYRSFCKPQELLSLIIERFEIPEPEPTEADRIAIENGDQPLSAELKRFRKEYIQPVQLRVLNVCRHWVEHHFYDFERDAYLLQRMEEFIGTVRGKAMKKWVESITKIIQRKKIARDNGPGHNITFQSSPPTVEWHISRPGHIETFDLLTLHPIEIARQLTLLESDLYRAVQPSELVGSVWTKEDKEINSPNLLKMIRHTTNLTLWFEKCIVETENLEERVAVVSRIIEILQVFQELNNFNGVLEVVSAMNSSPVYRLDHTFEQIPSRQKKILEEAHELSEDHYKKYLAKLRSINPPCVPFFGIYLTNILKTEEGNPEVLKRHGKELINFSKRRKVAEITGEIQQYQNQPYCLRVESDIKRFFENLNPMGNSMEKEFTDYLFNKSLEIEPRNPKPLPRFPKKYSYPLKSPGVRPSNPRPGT
# Chain of Ras GEF SOS (Son of Sevenless) (P01112 1-166 partner limits assumed): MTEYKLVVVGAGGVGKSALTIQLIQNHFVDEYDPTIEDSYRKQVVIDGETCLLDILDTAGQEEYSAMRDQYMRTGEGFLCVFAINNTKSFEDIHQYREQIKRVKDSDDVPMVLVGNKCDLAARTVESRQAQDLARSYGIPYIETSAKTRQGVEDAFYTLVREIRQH
row,SMILES,EC50 [µM]
1,"Nc1nc2ccccc2n1Cc1ccc(F)cc1 [Example 1, 1-(4-fluorobenzyl)-1H-benzo[d]imidazol-2-amine]",30 to 100
2,"Nc1nc2ccccc2n1Cc1ccc(F)c(Cl)c1 [Example 2, 1-(3-chloro-4-fluorobenzyl)-1H-benzo[d]imidazol-2-amine]",30 to 100
3,"Cc1cc2nc(N)n(Cc3ccc(F)cc3)c2cc1C [Example 3, 1-(4-fluorobenzyl)-5,6-dimethyl-1H-benzo[d]imidazol-2-amine]",30 to 100
4,"Cc1cc2nc(N)n(Cc3ccc(Cl)cc3)c2cc1C [Example 5, 1-(4-chlorobenzyl)-5,6-dimethyl-1H-benzo[d]imidazol-2-amine]",30 to 100
5,"Cc1cc2nc(N)n(Cc3cc(F)cc(F)c3)c2cc1C [Example 6, 1-(3,5-difluorobenzyl)-5,6-dimethyl-1H-benzo[d]imidazol-2-amine]",30 to 100
6,"Fc1ccc(Cn2c(N3CCOCC3)nc3ccccc32)cc1Cl [Example 8, 4-(1-(3-chloro-4-fluorobenzyl)-1H-benzo[d]imidazol-2-yl)morpholine]",30 to 100
7,"Fc1ccc(Cn2c(N3CCOCC3)nc3ccccc32)cc1 [Example 9, 4-(1-(4-fluorobenzyl)-1H-benzo[d]imidazol-2-yl)morpholine]",30 to 100
8,"Clc1ccc(Cn2c(N3CCNCC3)nc3ccccc32)cc1 [Example 11, 1-(4-chlorobenzyl)-2-(piperazin-1-yl)-1H-benzo[d]imidazole trifluoroacetate]",1 to 5
9,"NCCNc1nc2ccccc2n1Cc1ccc(Cl)cc1 [Example 12, N^1-(1-(4-chlorobenzyl)-1H-benzo[d]imidazol-2-yl)ethane-1,2-diamine trifluoroacetate]",5 to 30
10,"Fc1cc(F)cc(Cn2c(N3CCOCC3)nc3ccccc32)c1 [Example 13, 4-(1-(3,5-difluorobenzyl)-1H-benzo[d]imidazol-2-yl)morpholine]",30 to 100
11,"Fc1cc(F)cc(Cn2c(N3CCNCC3)nc3ccccc32)c1 [Example 14, 1-(3,5-difluorobenzyl)-2-(piperazin-1-yl)-1H-benzo[d]imidazole trifluoroacetate]",5 to 30
12,"NCCNc1nc2ccccc2n1Cc1cc(F)cc(F)c1 [Example 15, N^1-(1-(3,5-difluorobenzyl)-1H-benzo[d]imidazol-2-yl)ethane-1,2-diamine trifluoroacetate]",5 to 30
13,"Cc1cc2nc(NCCO)n(Cc3ccc(F)cc3)c2cc1C [Example 23, 2-((1-(4-fluorobenzyl)-5,6-dimethyl-1H-benzo[d]imidazol-2-yl)amino)ethan-1-ol]",30 to 100
14,"Cc1cc2nc(N3CCN(C)CC3)n(Cc3ccc(F)c(Cl)c3)c2cc1C [Example 27, 1-(3-chloro-4-fluorobenzyl)-5,6-dimethyl-2-(4-methylpiperazin-1-yl)-1H-benzo[d]imidazole trifluoroacetate]",30 to 100
15,"Cc1cc2nc(NCCN(C)C)n(Cc3ccc(F)c(Cl)c3)c2cc1C [Example 28, N^1-(1-(3-chloro-4-fluorobenzyl)-5,6-dimethyl-1H-benzo[d]imidazol-2-yl)-N^2,N^2-dimethylethane-1,2-diamine trifluoroacetate]",1 to 5
16,"Cc1cc2nc(NCCN3CCOCC3)n(Cc3ccc(F)cc3)c2cc1C [Example 29, 1-(4-fluorobenzyl)-5,6-dimethyl-N-(2-morpholinoethyl)-1H-benzo[d]imidazol-2-amine trifluoroacetate]",30 to 100

row,SMILES,EC50 [µM]
1,"Cc1cc2nc(NCCN3CCOCC3)n(Cc3ccc(F)c(Cl)c3)c2cc1C [Example 30, 1-(3-chloro-4-fluorobenzyl)-5,6-dimethyl-N-(2-morpholinoethyl)-1H-benzo[d]imidazol-2-amine trifluoroacetate]",5 to 30
2,"Cc1cc2nc(N3CCNCC3)n(Cc3cccc(C(F)(F)F)c3)c2cc1C [Example 32, 5,6-dimethyl-2-(piperazin-1-yl)-1-(3-(trifluoromethyl)benzyl)-1H-benzo[d]imidazole trifluoroacetate]",5 to 30
3,"Cc1cc2nc(-c3ccncc3)n(Cc3cc(F)cc(F)c3)c2cc1C [Example 53, 1-(3,5-difluorobenzyl)-5,6-dimethyl-2-(pyridin-4-yl)-1H-benzo[d]imidazole]",30 to 100
4,"Cc1cc2nc(-c3ccncc3)n(Cc3ccc(F)c(Cl)c3)c2cc1C [Example 54, 1-(3-chloro-4-fluorobenzyl)-5,6-dimethyl-2-(pyridin-4-yl)-1H-benzo[d]imidazole]",30 to 100
5,"Fc1ccc(Cn2c(C3CCNCC3)nc3ccccc32)cc1Cl [Example 55, 1-(3-chloro-4-fluorobenzyl)-2-(piperidin-4-yl)-1H-benzo[d]imidazole trifluoroacetate]",5 to 30
6,"Fc1cc(F)cc(Cn2c(C3CCNCC3)nc3ccccc32)c1 [Example 57, 1-(3,5-difluorobenzyl)-2-(piperidin-4-yl)-1H-benzo[d]imidazole trifluoroacetate]",5 to 30
7,"Cc1cc2nc(C3CCNCC3)n(Cc3ccc(F)c(Cl)c3)c2cc1C [Example 59, 1-(3-chloro-4-fluorobenzyl)-5,6-dimethyl-2-(piperidin-4-yl)-1H-benzo[d]imidazazole trifluoroacetate]",5 to 30
8,"Cc1ccc2nc(NCCN)n(Cc3ccc(F)c(Cl)c3)c2c1 [Example 60, N^1-(1-(3-chloro-4-fluorobenzyl)-6-methyl-1H-benzo[d]imidazol-2-yl)ethane-1,2-diamine trifluoroacetate]",1 to 5
9,"Fc1ccc(Cn2c(N3CCNCC3)nc3ccc(C(F)(F)F)cc32)cc1Cl [Example 71, 1-(3-chloro-4-fluorobenzyl)-2-(piperazin-1-yl)-6-(trifluoromethyl)-1H-benzo[d]imidazole trifluoroacetate]",1 to 5
10,"COc1ccc(-c2cccc3c2nc(N2CCNCC2)n3Cc2ccc(F)c(Cl)c2)cc1OC [Example 88, 1-(3-chloro-4-fluorobenzyl)-4-(3,4-dimethoxyphenyl)-2-(piperazin-1-yl)-1H-benzo[d]imidazole]",1 to 5
11,"NCCc1cccc2c1nc(N1CCNCC1)n2Cc1cc(F)cc(F)c1 [Example 99, 2-(1-(3,5-difluorobenzyl)-2-(piperazin-1-yl)-1H-benzo[d]imidazol-4-yl)ethan-1-amine trifluoroacetate]",5 to 30
12,"NCCc1cccc2c1nc(N1CCNCC1)n2Cc1ccc(C(F)(F)F)cc1 [Example 100, 2-(2-(piperazin-1-yl)-1-(4-(trifluoromethyl)benzyl)-1H-benzo[d]imidazol-4-yl)ethan-1-amine trifluoroacetate]",1 to 5
13,"Cc1cc2c(nc(NCCN)n2Cc2cccc(C#N)c2)c(-c2ccccc2Cl)c1C [Example 117, 3-((2-((2-aminoethyl)amino)-4-(2-chlorophenyl)-5,6-dimethyl-1H-benzo[d]imidazol-1-yl)methyl)benzonitrile trifluoroacetate]",1 to 5
14,"Cc1cc(CN2CCCCC2)c2ncn(Cc3ccc(F)c(Cl)c3)c2c1 [Example 144, 1-(3-chloro-4-fluorobenzyl)-6-methyl-4-(piperidin-1-ylmethyl)-1H-benzo[d]imidazole trifluoroacetate]",30 to 100
15,"Cc1cc2c(nc(NCCN)n2Cc2ccc(F)c(Cl)c2)c(CN2CCCC2)c1C [Example 146, N^1-(1-(3-chloro-4-fluorobenzyl)-5,6-dimethyl-4-(pyrrolidin-1-ylmethyl)-1H-benzo[d]imidazol-2-yl)ethane-1,2-diamine trifluoroacetate]",1 to 5
